The source of these data is article PMC3085635 (Bioorganic & medicinal chemistry letters, 2011).

Series [1] concerns the target HIV-1 integrase (IN), 3′-processing (Human immunodeficiency virus type 1 group M subtype B, UniProt P12497). Briefly: biochemical.
The target of series [2] is HIV-1 integrase (IN), strand transfer, wild-type (Human immunodeficiency virus type 1 group M subtype B, UniProt P12497). Briefly: biochemical. As to conditions: Strand transfer IC50, in vitro IN assays as described in reference [4].
Series [3] has as its system HIV-1 integrase N155H mutant. The class given is biochemical.
Series [4] deals with HIV-1 integrase Y143R mutant. It counts as biochemical.
Series [5] concerns HIV-1 vector with N155H integrase. It counts as cell-based. As to conditions: antiviral, cultured cells.
Series [6] concerns HIV-1 vector with Y143R integrase. It counts as cell-based. As to conditions: antiviral, cultured cells.
Series [7] concerns HIV-1 vector with G140S/Q148H integrase. The class given is cell-based. As to conditions: antiviral, mutant vector in cultured cells.
[8] abbreviates: 3′-Processing IC50, in vitro IN assays as described in reference [4].

“And” between values parts separate entries of the source, which are not always exact repeats. Equal entries are not always repeated.

The compound `O=C1c2ccc(O)c(O)c2C(=O)N1Cc1ccc(F)c(F)c1` [3-3, reference compound] registered an IC50 in series [1] (setting [8]) of 27 ± 1 µM.
`O=C1c2c(c3n(c(=O)c2O)CCCCC3)C(=O)N1Cc1ccc(F)c(F)c1` [4c-3] gave a half-inhibitory concentration (IC50) in series [1] (setting [8]) greater than 111 µM.
The compound `O=C1c2c(c3n(c(=O)c2O)CCCCCC3)C(=O)N1Cc1ccc(F)c(Cl)c1` [4d-1] displayed an IC50 in series [1] (setting [8]) greater than 111 µM.
Same read-out and setting: for `O=C1c2c(c3n(c(=O)c2O)CCCCC3)C(=O)N1Cc1ccc(F)cc1` [4c-2] the value was greater than 111 µM.
Regarding `O=C1c2ccc(O)c(O)c2C(=O)N1Cc1cccc2ccccc12` [3-6], the IC50 was 0.7 µM and 0.72 µM in series [2]; 150 ± 36 µM in series [1] (setting [8]).
With `O=C1c2c(c3n(c(=O)c2O)CCC3)C(=O)N1Cc1ccc(F)c(Cl)c1` [4a-1], the IC50 in series [1] (setting [8]) is greater than 111 µM.
Regarding `O=C1c2c(c3n(c(=O)c2O)CCCC3)C(=O)N1Cc1ccc(F)c(Cl)c1` [4b-1], the “fold less sensitive than Raltegravir to the N155H mutation” value in series [3] was “more than 2 fold”. In series [4], the “fold less sensitive than Raltegravir to the Y143R mutation” value is “more than 10 fold”. Besides, in series [5], the “fold lower loss of potency compared to Raltegravir, N155H vector” value was 10 fold. For the same compound, in series [6], the “fold lower loss of potency compared to Raltegravir, Y143R vector” value worked out at 10 fold. Also, the “times less sensitive than Raltegravir to the G140S/Q148H mutation” value in series [7] was 200 times. Besides, the IC50 in series [1] (3′-P IC50, metal cofactor Mg2+) is greater than 111 µM; in series [1] (setting [8]), greater than 111 µM. The “cytotoxicity fold lower than 3-1” value in the series with cultured cells worked out at 30 fold.
In series [1] (setting [8]), `O=C1c2c(c3n(c(=O)c2O)CCCCC3)C(=O)N1Cc1cccc2ccccc12` [4c-6] came in with an IC50 greater than 111 µM.
Turning to `O=C1c2c(c3n(c(=O)c2O)CCCCC3)C(=O)N1Cc1cccc(Cl)c1F` [4c-4], in series [1] (setting [8]), the 50% inhibitory concentration (IC50) was greater than 111 µM.
For the compound `O=C1c2c(c3n(c(=O)c2O)CCCCC3)C(=O)N1Cc1ccccc1` [4c-5], the IC50 in series [2] and in series [1] (setting [8]) was greater than 111 µM throughout.
As for `O=C1c2ccc(O)c(O)c2C(=O)N1Cc1ccc(F)c(Cl)c1` [3-1, reference compound], the IC50 in series [2] worked out at 0.17 ± 0.06 µM; in series [1] (setting [8]) it was 14 ± 3 µM.
Take `O=C1c2ccc(O)c(O)c2C(=O)N1Cc1ccccc1` [3-5]: the IC50 in series [2] was 0.4 µM and 0.39 µM; in series [1] (setting [8]), 72 ± 23 µM.
Take `O=C1c2c(c3n(c(=O)c2O)CCCCC3)C(=O)N1Cc1ccc(F)c(Cl)c1` [4c-1]: the IC50 in series [1] (setting [8]) was greater than 111 µM.
In series [1] (setting [8]), `O=C1c2ccc(O)c(O)c2C(=O)N1Cc1cccc(Cl)c1F` [3-4, reference compound] gave an IC50 of 25 ± 16 µM.
As to `O=C1c2ccc(O)c(O)c2C(=O)N1Cc1ccc(F)cc1` [3-2, reference compound], the midpoint of inhibition in series [1] (setting [8]), the IC50, lay at 8 ± 3 µM.
